Results published in PMC11960843, “Exploration of the tunability of BRD4 degradation by DCAF16 trans-labelling covalent glues” (European journal of medicinal chemistry, 2024).

Columns and labels:
BRD4BD1 = BRD4BD1 (Homo sapiens, UniProt O60885); experiment: BRD4 AlphaScreen competition assay (JQ1-biotin displacement), BRD4BD1; type: binding; details: read-out: IC50 BRD4BD1
[1] = target: T1, BRD4BD2-DCAF16 ternary complex (Homo sapiens, UniProt O60885+Q9NXF7); experiment: DDB1-DCAF16-BRD4BD2 TR-FRET ternary complex formation assay; type: biochemical; details: for TR-FRETmax (520 nm/490 nm ratio): 6 h degrader incubation
T1 construct: E3 ligase to bromodomain 2 (BRD4BD2); His6 (N); StrepII (N); Avi (N); made in house; host or cells: BRD4BD2: E. coli (pET100/D-TOPO)
From the text: To determine the relationship between covalent warheads and DCAF16 recruitment to BRD4BD2, we used a time-resolved fluorescence energy transfer (TR-FRET) assay to measure induced BRD4BD2-DCAF16 ternary complex formation (Fig. 3A).
Furthermore, we wanted to determine the kinetics of the BRD4BD2-DCAF16 interaction given its covalent nature. […] Additionally, to understand the relationship between ternary complex formation kinetics and warhead reactivity we measured the depletion of the covalent analogs in the presence of glutathione using MS (Table S2). […] Titrations of compounds to induce the DCAF16-BRD4BD complex were carried out by mixing 100 nM biotinylated BRD4BD2, 500 nM BODIPY-FL labeled DDB1ΔB-DCAF16 variants, and 2 nM terbium-coupled streptavidin (Invitrogen) in an assay buffer containing 50 mM HEPES pH 8.0, 200 mM NaCl, 0.1% Pluronic F-68 solution (Sigma), 0.5% bovine serum albumin (BSA) (w/v) and 1 mM TCEP. […] The TR-FRET signal of each data point was extracted by calculating the 520/490 nm ratio.

glutathione = experiment: GSH stability (glutathione reactivity) assay by LC-MS/MS; type: physicochemical; details: PBS containing 5 mM reduced glutathione; PBS + 5 mM GSH; extrapolated from 240 min assay
From the text: Furthermore, we wanted to determine the kinetics of the BRD4BD2-DCAF16 interaction given its covalent nature. […] Additionally, to understand the relationship between ternary complex formation kinetics and warhead reactivity we measured the depletion of the covalent analogs in the presence of glutathione using MS (Table S2). […].

[2] = as above; type: physicochemical; details: phosphate buffered saline (PBS) without glutathione, extrapolated from 240 min assay
BRD4BD2 [3] = target: T2, BRD4BD2 (Homo sapiens, UniProt O60885); experiment: BRD4BD2-eGFP and mCherry flow reporter degradation assay, wild type K562 cells; details: for Dmax: K562, read-out: maximal degradation (Dmax/16h) of BRD4BD2, K562 cells, 16 h incubation
From the text: This assay involves the co-expression of mCherry with BRD4BD1/2 fused to an enhanced green fluorescent protein (eGFP) tag, and the subsequent fluorescence measurement of BRD4BD1/2-eGFP normalized to mCherry as a readout for BRD4BD1/2 degradation. It allows for a quantitative, rapid, and facile screening of several MGDs, in a dose-and time-dependent manner. […] Thus, the BRD4BD2 stability system was used to test all subsequent GNE011 analogs in wild type and DCAF16−/− cells.
One day after infection, reporter cells were selected with puromycin at a concentration of 2 μg/mL.
K562 cells stably expressing degradation reporter were dosed with DMSO or degraders at various times and concentrations using D300e Digital Dispenser (HP). The fluorescent signal was quantified by flow cytometry (LSRFortessa flow cytometer, BD Biosciences) and analyzed using FlowJo (flow cytometry analysis software, BD Biosciences). The geometric mean of the eGFP and mCherry fluorescent signal for round and mCherry-positive cells was calculated. GFP expression was normalized to mCherry signal and drug treatments were compared to DMSO controls.

BRD4 [4] = target: T3, BRD4 (Homo sapiens, UniProt O60885); experiment: Western blot of BRD4 degradation, wild-type K562 cells; type: cell-based; set-up: an 11 amino acid peptide knock-in tag to a protein-of-interest using CRISPR insertion; endogenous in cells; details: wild-type K562, 1 μM, 16 h
Description: (§1) Western blotting was used to determine the degradation potencies of the covalent BRD4 degraders.
(§2) Cells were washed with PBS and lysed in RIPA lysis buffer (Thermo Fisher Scientific) with Halt Protease Inhibitor Cocktail (Thermo Fisher Scientific) and Benzonase (Sigma-Aldrich) for 20 min on ice. The insoluble fraction was removed by centrifugation, the protein concentration was quantified using a BCA protein assay kit (Thermo Fisher Scientific), and an equal amount of lysate was run on SDS–PAGE 4–12% Bis–Tris Protein Gels (Thermo Fisher Scientific) and then transferred to nitrocellulose membrane with a XCell II Blot Module Wet Tank Transfer System (Thermo Fisher Scientific). Membranes were blocked in Intercept (PBS) Blocking Buffer (LI-COR Biosciences) and incubated with primary antibodies overnight at 4 °C. The membranes were then washed in Tris-buffered saline with Tween-20 (TBS-T), incubated for 1 h with secondary IRDye-conjugated antibodies (LI-COR Biosciences) and washed three times in TBS-T for 5 min before near-infrared western blot detection on an Odyssey Imaging System (LI-COR Biosciences).

BRD4 [5] = target: T3, BRD4; experiment: Western blot of BRD4 degradation, DCAF16 KO K562 cells; type: cell-based; set-up: an 11 amino acid peptide knock-in tag to a protein-of-interest using CRISPR insertion; endogenous in cells; details: DCAF16 KO K562, 1 μM, 16 h
Description: as §1, §2

BRD4 [6] = target: T3, BRD4; experiment: Washout experiment, Western blot of BRD4 degradation in K562 cells; type: cell-based; set-up: an 11 amino acid peptide knock-in tag to a protein-of-interest using CRISPR insertion; endogenous in cells; details: K562, 1 μM, 4 h treatment, washout, 20 h compound-free vs 24 h no washout
Description: This experiment involves cell treatment and incubation with a ‘covalent’ compound, followed by a wash-step where the cells are washed and resuspended in compound-free cell media.
Cells were washed with PBS and lysed in RIPA lysis buffer (Thermo Fisher Scientific) with Halt Protease Inhibitor Cocktail (Thermo Fisher Scientific) and Benzonase (Sigma-Aldrich) for 20 min on ice. […] Membranes were blocked in Intercept (PBS) Blocking Buffer (LI-COR Biosciences) and incubated with primary antibodies overnight at 4 °C. The membranes were then washed in Tris-buffered saline with Tween-20 (TBS-T), incubated for 1 h with secondary IRDye-conjugated antibodies (LI-COR Biosciences) and washed three times in TBS-T for 5 min before near-infrared western blot detection on an Odyssey Imaging System (LI-COR Biosciences).

BRD4 [7] = target: T3, BRD4; experiment: BRD4-HiBiT assay, WT JURKAT cells; type: cell-based; set-up: an 11 amino acid peptide knock-in tag to a protein-of-interest using CRISPR insertion; endogenous in cells; host or cells: JURKAT, HiBiT-edited (wild type or DCAF16 knockout); details: 6 h
Description: (§3) Thereafter, we sought to characterize the BRD4 cellular degradation potencies in a dose-dependent manner at a shorter time point to minimize secondary effects. This was performed using the bioluminescent HiBiT-BRD4 assay, which consists of an 11 amino acid peptide knock-in tag to a protein-of-interest using CRISPR insertion. A complementary polypeptide (LgBiT) detects and interacts with all HiBiT tagged proteins, thereby reconstituting a luminescent NanoBiT enzyme, that can be quantified by its bioluminescence. WT and DCAF16 KO JURKAT cell lines expressing the BRD4-HiBiT system were generated to quantify dose-dependent BRD4 degradation after 6 h incubation (Fig. 4C).
(§4) After 6 h, the plates were subjected to Nano-Glo HiBiT Lytic detection system (Promega, #N3040) as described in manufacturer's manual. The assays were performed in biological triplicate. DC50 values were determined using a non-linear regression curve fit in GraphPad PRISM 9.5.1.

BRD4 [8] = target: T3, BRD4; experiment: BRD4-HiBiT assay, DCAF16 KO JURKAT cells; type: cell-based; set-up: an 11 amino acid peptide knock-in tag to a protein-of-interest using CRISPR insertion; endogenous in cells; host or cells: JURKAT, HiBiT-edited (wild type or DCAF16 knockout); details: 6 h
Description: as §3, §4

BRD4BD2 [9] = target: T2, BRD4BD2; experiment: BRD4 AlphaScreen competition assay (JQ1-biotin displacement), BRD4BD2; type: binding; details: read-out: IC50 BRD4BD2

T1 sequence (Q9NXF7 whole entry, other chains not shown): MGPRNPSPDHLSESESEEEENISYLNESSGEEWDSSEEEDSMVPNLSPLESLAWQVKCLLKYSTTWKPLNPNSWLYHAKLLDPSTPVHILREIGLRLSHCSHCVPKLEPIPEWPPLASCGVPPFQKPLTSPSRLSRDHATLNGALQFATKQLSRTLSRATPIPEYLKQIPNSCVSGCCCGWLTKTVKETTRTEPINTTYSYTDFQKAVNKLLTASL

SMILES	IC50 (BRD4BD1) [µM]	TR-FRETmax (520 nm/490 nm ratio) [1]	BRD4BD2-DCAF16 ternary complex formation / DCAF16 recruitment (in words) ([1]; time-dependent TR-FRET)	half-life (glutathione) [h]	half-life [2] [h]	Dmax (BRD4BD2 [3]) [%]	DC50 (BRD4BD2 [3]; read-out: DC50 of BRD4BD2 degradation, K562 cells, 16 h incubation) [µM]	BRD4 degradation by Western blot (in words) (BRD4 [4])	BRD4 degradation by Western blot in DCAF16 KO (in words) (BRD4 [5])	BRD4 degradation after washout compared to no washout (in words) (BRD4 [6])	BRD4 degradation (in words) (BRD4 [7])	BRD4 degradation in DCAF16 KO (in words) (BRD4 [8])	IC50 (BRD4BD2 [9]) [µM]	maximal degradation (Dmax/16h) of BRD4BD2 (BRD4BD2 [3]; K562 cells, 16 h incubation) [%]
Cc1sc2c(c1C)C(c1ccc(C#CC(N)=O)cc1)=N[C@@H](CC(=O)OC(C)(C)C)c1nnc(C)n1-2 [MMH287, tert-butyl (S)-2-(4-(4-(3-amino-3-oxoprop-1-yn-1-yl)phenyl)-2,3,9-trimethyl-6H-thieno[3,2-f][1,2,4]triazolo[4,3-a][1,4]diazepin-6-yl)acetate]	0.0129	0.15	almost no increase in ternary complex formation	6.33	> 12.5	69	0.051	nearly complete BRD4 degradation	completely rescued by DCAF16 KO	nearly a complete rescue	noticeable BRD4 degradation	completely rescued by DCAF16 KO		
Cc1sc2c(c1C)C(c1ccc(C#CCN)cc1)=N[C@@H](CC(=O)OC(C)(C)C)c1nnc(C)n1-2 [GNE011, tert-butyl (S)-2-(4-(4-(3-aminoprop-1-yn-1-yl)phenyl)-2,3,9-trimethyl-6H-thieno[3,2-f][1,2,4]triazolo[4,3-a][1,4]diazepin-6-yl)acetate, reference compound]	0.0112	0.18		11.3	> 12.5	~50		moderate degradation		nearly a complete rescue			0.00779	49
